Calls of active or inactive are those of the source.
Experiments:
[1] = target: Protein Tat (Human immunodeficiency virus type 1 group M subtype B (isolate HXB2)(HIV-1), UniProt P04608); format: functional;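 also: tat binding to TAR RNA read out by fluorescence polarization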
[2] = target: T1, Oxysterols receptor LXR-beta (Homo sapiens, UniProt P55055); format: functional, cell-based;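 also: agonist activity at LXR measured by a cell-based luminescence readout across a dose range, run as a counterscreen for daf-12 agonists; potency for activation of Gal4-LXR reporter so compounds are agonists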
T1 sequence (P55055 whole entry): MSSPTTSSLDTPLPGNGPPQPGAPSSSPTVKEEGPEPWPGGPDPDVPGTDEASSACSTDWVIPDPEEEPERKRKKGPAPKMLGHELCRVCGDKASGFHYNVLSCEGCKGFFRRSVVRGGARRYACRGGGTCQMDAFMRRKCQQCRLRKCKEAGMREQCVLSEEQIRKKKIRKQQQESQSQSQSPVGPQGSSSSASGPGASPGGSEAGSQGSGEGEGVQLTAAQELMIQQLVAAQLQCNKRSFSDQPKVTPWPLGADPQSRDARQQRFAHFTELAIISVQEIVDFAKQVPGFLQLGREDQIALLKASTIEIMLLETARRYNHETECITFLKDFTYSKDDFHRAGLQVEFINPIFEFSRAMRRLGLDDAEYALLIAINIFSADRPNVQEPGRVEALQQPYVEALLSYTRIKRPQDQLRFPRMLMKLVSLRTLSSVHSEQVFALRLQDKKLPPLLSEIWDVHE

[3] = Luminescence-based cell-based high throughput dose response assay to identify activators of the DAF-12 from the parasite S. stercoralis (ssDAF-12).; format: functional
[4] = test system: HT-1080; test: HT1080 cell viability loss – fluorescence readout (AID 620); format: functional, cell-based; details: Homo sapiens
[5] = target: Luciferin 4-monooxygenase (Photinus pyralis, UniProt P08659); test: Counter Screen for Luciferase-based Assay Positives. [Related pubchem assays: 620, 618, 411 ]
Luciferin 4-monooxygenase, sequence (P08659 whole entry, the tested form may be a part): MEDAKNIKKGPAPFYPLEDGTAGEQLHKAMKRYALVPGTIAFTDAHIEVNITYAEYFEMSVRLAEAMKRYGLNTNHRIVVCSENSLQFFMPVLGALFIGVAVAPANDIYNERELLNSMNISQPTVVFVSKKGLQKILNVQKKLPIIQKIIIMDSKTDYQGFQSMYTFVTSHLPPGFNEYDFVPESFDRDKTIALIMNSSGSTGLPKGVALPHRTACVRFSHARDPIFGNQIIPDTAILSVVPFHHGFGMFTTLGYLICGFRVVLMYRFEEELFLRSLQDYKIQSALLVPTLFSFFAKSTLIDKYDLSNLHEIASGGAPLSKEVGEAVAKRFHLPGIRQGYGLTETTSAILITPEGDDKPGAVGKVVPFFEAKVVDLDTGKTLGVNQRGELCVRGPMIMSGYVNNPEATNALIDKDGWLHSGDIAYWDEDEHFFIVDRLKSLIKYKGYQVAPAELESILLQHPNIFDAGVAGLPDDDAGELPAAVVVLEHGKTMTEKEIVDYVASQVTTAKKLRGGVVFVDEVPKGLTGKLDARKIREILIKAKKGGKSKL

[6] = target: T1, Oxysterols receptor LXR-beta; test: LXR agonists, Gal4 luciferase reporter, dose response, counter-screen for ssDAF-12 agonist project, cell-based, luminescence, HEK293, S. stercoralis campaign (AID 720737); format: functional; details: read-out: IC50 (the source's name)
[7] = HGIII-sPLA2 enzyme inhibition potency – biochemical, QFRET, IC50, dose response (AID 743457);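 also: green fluorescence rise as the enzyme cleaves BODIPY PC-A2 in liposomes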
[8] = viability loss in HepG2 hepatoma cells – cell-based, ATP luminescence, cherry-pick, activator set 2, cytotoxicity control, dose response (AID 1053143); format: functional
[9] = target: Fatty acid synthase (Homo sapiens, UniProt P49327); test: inhibition of human FAS-TE enzyme activity – biochemical, kinetic fluorescence intensity, dose response (AID 624326); format: functional;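 also: rate of fluorescence rise from hydrolysis of a fluorogenic O-methyl fluorescein ester substrate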
Fatty acid synthase, sequence (P49327 whole entry): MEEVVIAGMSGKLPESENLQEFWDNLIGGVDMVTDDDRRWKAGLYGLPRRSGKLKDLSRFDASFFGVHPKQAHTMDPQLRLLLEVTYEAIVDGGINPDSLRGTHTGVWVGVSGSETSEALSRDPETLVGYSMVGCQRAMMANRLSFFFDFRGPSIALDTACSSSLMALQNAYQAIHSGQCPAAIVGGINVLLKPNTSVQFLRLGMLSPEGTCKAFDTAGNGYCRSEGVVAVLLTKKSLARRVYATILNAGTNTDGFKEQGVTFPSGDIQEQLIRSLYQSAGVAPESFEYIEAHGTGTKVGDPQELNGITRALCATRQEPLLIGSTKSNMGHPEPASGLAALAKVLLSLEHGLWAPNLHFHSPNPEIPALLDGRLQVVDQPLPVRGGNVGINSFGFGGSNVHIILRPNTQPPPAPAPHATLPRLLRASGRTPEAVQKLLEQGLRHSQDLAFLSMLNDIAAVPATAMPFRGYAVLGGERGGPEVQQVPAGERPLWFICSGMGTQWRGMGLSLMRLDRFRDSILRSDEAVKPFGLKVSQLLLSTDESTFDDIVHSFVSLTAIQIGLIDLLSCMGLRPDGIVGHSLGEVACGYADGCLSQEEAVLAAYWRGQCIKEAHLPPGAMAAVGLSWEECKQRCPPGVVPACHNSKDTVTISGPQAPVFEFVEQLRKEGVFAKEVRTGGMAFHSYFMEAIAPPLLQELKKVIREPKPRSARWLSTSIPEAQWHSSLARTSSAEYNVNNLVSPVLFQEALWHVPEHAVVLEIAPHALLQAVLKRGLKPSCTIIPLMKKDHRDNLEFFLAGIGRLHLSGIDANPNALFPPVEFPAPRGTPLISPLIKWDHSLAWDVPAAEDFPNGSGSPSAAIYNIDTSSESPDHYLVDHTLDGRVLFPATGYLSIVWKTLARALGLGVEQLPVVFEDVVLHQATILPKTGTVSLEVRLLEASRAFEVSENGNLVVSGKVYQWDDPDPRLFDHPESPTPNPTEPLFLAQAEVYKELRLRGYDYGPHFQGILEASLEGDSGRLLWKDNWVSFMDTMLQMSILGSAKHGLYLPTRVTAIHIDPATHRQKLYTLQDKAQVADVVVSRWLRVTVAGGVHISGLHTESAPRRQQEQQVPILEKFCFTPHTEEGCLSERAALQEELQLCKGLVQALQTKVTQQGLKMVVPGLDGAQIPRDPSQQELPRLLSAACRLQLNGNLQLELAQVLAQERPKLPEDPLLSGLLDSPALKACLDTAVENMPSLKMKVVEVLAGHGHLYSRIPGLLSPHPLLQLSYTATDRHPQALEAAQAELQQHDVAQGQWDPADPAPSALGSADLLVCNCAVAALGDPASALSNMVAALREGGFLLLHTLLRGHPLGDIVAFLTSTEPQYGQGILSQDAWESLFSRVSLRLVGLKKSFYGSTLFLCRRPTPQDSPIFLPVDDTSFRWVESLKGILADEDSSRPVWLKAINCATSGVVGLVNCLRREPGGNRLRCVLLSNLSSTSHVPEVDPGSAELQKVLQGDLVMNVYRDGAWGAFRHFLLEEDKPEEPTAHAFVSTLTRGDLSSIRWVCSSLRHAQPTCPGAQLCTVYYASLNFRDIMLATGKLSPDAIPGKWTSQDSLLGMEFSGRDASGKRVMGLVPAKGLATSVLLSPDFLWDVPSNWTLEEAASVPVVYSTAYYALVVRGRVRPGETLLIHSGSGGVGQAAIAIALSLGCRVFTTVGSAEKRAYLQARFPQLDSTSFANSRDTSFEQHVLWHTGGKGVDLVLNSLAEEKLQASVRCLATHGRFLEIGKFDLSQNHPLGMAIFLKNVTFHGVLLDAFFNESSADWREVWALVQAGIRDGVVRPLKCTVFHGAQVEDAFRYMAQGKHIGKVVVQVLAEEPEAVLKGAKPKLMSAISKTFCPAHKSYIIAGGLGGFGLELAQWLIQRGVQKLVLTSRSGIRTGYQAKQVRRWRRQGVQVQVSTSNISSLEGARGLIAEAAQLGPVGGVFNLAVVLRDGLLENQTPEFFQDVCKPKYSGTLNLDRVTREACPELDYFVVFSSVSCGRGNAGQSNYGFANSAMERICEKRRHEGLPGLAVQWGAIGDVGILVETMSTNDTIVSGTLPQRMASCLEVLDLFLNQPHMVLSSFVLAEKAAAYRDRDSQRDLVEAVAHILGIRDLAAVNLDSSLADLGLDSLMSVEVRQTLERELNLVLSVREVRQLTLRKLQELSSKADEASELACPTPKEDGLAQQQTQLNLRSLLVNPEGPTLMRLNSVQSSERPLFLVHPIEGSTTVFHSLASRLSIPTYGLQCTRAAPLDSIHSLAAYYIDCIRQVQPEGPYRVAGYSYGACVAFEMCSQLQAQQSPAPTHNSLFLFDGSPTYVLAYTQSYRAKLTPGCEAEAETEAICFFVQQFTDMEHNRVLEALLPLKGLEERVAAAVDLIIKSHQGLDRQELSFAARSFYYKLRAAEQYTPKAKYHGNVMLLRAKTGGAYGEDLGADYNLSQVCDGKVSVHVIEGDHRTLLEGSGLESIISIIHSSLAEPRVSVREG

[10] = inhibition of ADAM10 peptide cleavage – biochemical, FRET peptide substrate, recombinant human ADAM10, selectivity assay for ADAM17 exosite inhibitor project, dose response (AID 743259);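 also: ADAM10 enzyme cleaving a FRET peptide substrate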
[11] = target: Disintegrin and metalloproteinase domain-containing protein 17 (Homo sapiens, UniProt P78536); test: exosite inhibitors of ADAM17, dose response, biochemical (AID 743260)
Disintegrin and metalloproteinase domain-containing protein 17, sequence (P78536 whole entry, the tested form may be a part): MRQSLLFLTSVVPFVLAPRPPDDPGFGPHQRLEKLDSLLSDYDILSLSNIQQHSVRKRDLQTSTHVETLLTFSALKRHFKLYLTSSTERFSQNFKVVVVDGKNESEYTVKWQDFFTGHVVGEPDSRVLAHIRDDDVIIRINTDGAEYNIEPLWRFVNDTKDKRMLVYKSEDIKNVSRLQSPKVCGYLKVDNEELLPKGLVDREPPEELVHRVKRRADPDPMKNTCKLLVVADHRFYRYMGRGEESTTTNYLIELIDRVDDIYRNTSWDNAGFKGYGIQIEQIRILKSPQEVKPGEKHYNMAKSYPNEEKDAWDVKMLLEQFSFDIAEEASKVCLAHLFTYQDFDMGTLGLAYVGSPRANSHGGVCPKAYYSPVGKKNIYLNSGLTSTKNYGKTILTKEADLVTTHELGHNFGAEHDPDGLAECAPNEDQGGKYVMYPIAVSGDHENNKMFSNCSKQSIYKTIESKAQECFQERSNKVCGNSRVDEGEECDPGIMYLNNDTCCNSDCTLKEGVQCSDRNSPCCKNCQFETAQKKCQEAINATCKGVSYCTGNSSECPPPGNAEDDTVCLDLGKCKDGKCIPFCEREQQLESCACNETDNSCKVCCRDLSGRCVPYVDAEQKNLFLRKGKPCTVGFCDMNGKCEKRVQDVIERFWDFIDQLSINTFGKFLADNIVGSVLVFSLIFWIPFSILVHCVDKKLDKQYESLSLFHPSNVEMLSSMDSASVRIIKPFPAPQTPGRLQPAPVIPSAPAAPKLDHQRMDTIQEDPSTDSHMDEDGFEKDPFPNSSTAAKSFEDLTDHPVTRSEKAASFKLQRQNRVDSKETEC

[12] = cells; format: functional
[13] = microbe, parasite or virus in culture; format: functional; details: Mycobacterium tuberculosis
[14] = target: T2, Histone-lysine N-methyltransferase NSD2 (Homo sapiens, UniProt O96028); format: biochemical
T2 sequence (O96028 whole entry): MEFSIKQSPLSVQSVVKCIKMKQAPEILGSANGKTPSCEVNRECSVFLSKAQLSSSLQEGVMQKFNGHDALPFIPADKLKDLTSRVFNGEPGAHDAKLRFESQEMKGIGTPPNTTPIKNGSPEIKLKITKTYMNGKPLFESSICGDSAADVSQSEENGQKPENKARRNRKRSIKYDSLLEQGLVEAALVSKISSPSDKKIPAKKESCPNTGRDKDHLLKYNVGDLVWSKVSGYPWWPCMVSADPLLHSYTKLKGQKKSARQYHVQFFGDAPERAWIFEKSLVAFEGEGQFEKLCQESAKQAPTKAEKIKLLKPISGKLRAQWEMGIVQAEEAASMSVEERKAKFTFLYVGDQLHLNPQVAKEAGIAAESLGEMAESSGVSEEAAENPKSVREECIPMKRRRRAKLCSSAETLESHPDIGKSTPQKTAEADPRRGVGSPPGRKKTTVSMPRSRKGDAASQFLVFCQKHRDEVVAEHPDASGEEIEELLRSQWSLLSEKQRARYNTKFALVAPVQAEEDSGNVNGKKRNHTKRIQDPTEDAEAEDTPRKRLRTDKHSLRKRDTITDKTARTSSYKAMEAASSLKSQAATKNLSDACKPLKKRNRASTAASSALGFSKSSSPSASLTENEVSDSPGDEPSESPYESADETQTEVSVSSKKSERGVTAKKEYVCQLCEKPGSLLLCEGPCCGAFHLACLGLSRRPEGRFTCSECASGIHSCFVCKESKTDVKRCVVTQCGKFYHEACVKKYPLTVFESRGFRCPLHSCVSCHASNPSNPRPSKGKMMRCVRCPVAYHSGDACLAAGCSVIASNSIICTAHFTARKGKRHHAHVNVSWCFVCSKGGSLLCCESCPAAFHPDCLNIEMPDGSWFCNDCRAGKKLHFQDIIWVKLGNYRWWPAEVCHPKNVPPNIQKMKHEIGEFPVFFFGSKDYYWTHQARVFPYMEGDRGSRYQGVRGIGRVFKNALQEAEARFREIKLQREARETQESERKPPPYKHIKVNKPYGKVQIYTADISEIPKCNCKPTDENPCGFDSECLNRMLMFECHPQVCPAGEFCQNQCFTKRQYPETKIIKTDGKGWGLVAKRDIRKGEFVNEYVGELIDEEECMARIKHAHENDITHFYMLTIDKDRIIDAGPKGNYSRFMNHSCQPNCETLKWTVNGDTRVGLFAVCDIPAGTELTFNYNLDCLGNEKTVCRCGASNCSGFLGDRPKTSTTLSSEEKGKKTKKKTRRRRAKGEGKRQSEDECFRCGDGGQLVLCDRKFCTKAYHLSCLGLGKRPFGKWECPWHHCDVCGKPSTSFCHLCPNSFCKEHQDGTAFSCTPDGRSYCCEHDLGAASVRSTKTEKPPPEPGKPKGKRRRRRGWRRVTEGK

[15] = P. falciparum Dd2 growth inhibitors, dose response, SYBR Green, cherry-picked samples (AID 1159567); format: functional, cell-based
[16] = toxicity to human HepG2 hepatoma cells – cell-based, plate reader, dry powder samples, cytotoxicity control, dose response (AID 1159569); format: functional;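 also: inhibitor potency with signal falling toward the positive control level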
[17] = growth inhibition of PfATP4-mutant resistant parasites – NITD609-resistant line, SYBR Green, dry powder, dose response (AID 1159571); format: functional, cell-based;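 also: parasites synchronized at ring stage by sorbitol before testing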
[18] = growth inhibition of yeast DHODH-expressing 3D7 parasites – SYBR Green, dry powder samples, dose response (AID 1159570); format: functional, cell-based;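 also: parasite growth measured after 72 hours of compound exposure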
[19] = toxicity to human hepatoma HepG2 cells – cell-based, cherry-picked samples, cytotoxicity control, dose response (AID 1159577); format: functional
[20] = Dd2 malaria parasite growth inhibition potency – SYBR Green, dry powder samples, dose response (AID 1159566); format: functional, cell-based;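 also: potency for growth inhibition with lower SYBR green DNA signal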

Protein Tat, sequence (P04608 whole entry, the tested form may be a part): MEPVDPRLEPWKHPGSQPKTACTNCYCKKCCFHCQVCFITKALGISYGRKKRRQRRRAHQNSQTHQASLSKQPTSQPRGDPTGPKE

Compound: CCCOC(=O)Nc1sc2c(c1C(=O)OCC)CCC2
- IC50 [1]: > 100 µM (active)

Compound: CCc1ccc2oc(-c3cccc(N)c3)nc2c1
- EC50 [2]: > 67.6 µM (inactive)
- IC50 [3]: > 67.5 µM (inactive)
- EC50 [4]: > 50 µM (not active)
- EC50 [5]: 0.37 µM (active)
- EC50 [6]: > 67.5 µM (inactive)

Compound: CN1/C(=C\C(=O)Nc2ccc(F)cc2)C(C)(C)c2ccccc21
- IC50 [7]: > 122 µM (inactive)

Compound: Cc1occc1C(=O)Nc1ccc2c(c1)OCCO2
- AC50 [8]: > 52 µM (inactive)

Compound: Cc1ccc(NC(=O)NNC(=O)Cn2nc(-c3ccccc3)c(-c3ccccc3)c(C#N)c2=O)cc1
- IC50 [9]: 4.64 µM (active)
- IC50 [10]: > 69.5 µM (inactive)
- IC50 [11]: > 69.5 µM (inactive)

Compound: Oc1cc(NCc2cccnc2)ccc1-c1nc2ccccc2o1
- IC50 [12]: 14.1 µM (active)
- CC50 [13]: > 40 µM (active)
- AC50 [8]: 26 µM (active)

Compound: Cc1ccc(C(=O)NC(=S)c2c(C)cc3ccccn23)cc1
- IC50 [3]: > 67.5 µM (inactive)
- EC50 [6]: > 67.5 µM (inactive)
- AC50 [14]: 11 µM (active)

Compound: COc1ccccc1C#Cc1ccc([C@@H]2[C@@H](C#N)N(C(=O)C3CCCC3)[C@H]2CO)cc1
- AC50 [15]: 2.9 µM (active)
- AC50 [16]: 25.2 µM (active)
- AC50 [17]: 1.39 µM (active)
- AC50 [18]: 1.92 µM (active)
- AC50 [19]: > 39 µM (inactive)
- AC50 [20]: 1.22 µM (active)

Reference: ChEMBL document CHEMBL1201862, “PubChem BioAssay data set” (2004)
